Test results reported in patent US8809001B2, “High throughput assays for inhibitors and activators of PAQR receptors” (University of Florida Research Foundation, Inc., priority 2007, dated 2014).
Where two headings read alike, the source gives them in different places.

Experiments:
mPRα = target: T1, mPRα (Homo sapiens, UniProt Q86WK9); assay: cell-based
T1 construct: Full length and truncated mPRγ and mPRα were expressed in wild type cells grown in 2% galactose from the pGREG536 vector; expressed in transfected cells; host or cells: Saccharomyces cerevisiae (BY4742 wild type; also gpa mutants), GAL1-driven plasmids (TPI1 promoter in pJK90)
T1 sequence (Q86WK9 1-346): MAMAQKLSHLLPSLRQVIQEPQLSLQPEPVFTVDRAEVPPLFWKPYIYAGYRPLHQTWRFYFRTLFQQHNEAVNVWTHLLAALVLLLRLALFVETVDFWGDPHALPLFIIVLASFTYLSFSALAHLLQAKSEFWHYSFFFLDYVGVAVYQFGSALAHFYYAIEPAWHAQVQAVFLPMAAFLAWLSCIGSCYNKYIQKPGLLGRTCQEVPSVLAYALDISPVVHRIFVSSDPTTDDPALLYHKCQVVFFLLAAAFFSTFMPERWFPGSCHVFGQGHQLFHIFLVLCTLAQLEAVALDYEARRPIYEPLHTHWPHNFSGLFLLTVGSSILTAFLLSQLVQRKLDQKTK
Excerpt: Plasmids and primers. Human PAQRs were cloned into various vectors by PCR from commercially/publically available cDNAs. […] The OST4 open reading frame in pJK90 was replaced with the PAQR6 and mPRα open reading frames by gap repair. Primers for all cloning reactions are listed herein. Proteins expressed in pYES260 have an N-terminal 6×-histidine tag followed by a TEV protease cleavage site. Proteins expressed in pGREG536 have an N-terminal 7×-HA tag. Proteins expressed in the pRS316 vector are untagged. The pYES260, pRS316 and pGREG536 vectors allow for galactose-inducible expression via the GAL1 promoter. […] A pRS316-based plasmid containing the STE2 gene under the control of the GAL1 promoter (Feng et al., 2000) was kindly provided by Dr. Nicholas G. Davis (Wayne State University).
Assays and growth conditions. Strains were maintained using standard protocol and grown in synthetic defined (SD) media with the appropriate amino acids to match the auxotrophies of the individual strains. […] In brief, overnights of cells grown in SD-glucose media were re-inoculated into iron-deficient LIM to induce the expression of FET3. […] All ligands were added to the growth medium upon re-inoculation into LIM. For experiments in which steroids were added as ligands, steroids were added from ethanol stocks and “untreated” controls are actually treated with an equal volume of ethanol to control for vehicle effects. […] All experiments were performed at least three times and a representative experiment is shown. EC50 values were obtained using the web-based BioDataFit software using sigmoidal curve-fitting. (web site changbioscience.com/stat/ec50.html)

PAQR6 = target: T2, PAQR6 (Homo sapiens, UniProt Q6TCH4); assay: FET3-lacZ reporter repression in yeast expressing PAQR6; type: cell-based; details: FET3-lacZ
T2 construct: expressed in transfected cells; host or cells: Saccharomyces cerevisiae BY4742, GAL1-driven pYES260 plasmid
T2 sequence (Q6TCH4 1-344): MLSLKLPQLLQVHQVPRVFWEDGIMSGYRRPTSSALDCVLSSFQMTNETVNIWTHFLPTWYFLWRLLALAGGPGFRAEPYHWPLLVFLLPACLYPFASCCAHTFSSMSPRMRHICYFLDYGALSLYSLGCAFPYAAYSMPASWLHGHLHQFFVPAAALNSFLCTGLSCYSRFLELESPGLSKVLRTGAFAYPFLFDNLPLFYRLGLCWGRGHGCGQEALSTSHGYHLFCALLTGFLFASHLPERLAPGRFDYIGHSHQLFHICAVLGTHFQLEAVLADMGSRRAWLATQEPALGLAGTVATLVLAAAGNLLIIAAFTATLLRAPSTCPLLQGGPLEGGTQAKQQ
Excerpt: (§1) Plasmids and primers. Human PAQRs were cloned into various vectors by PCR from commercially/publically available cDNAs. PAQRs were cloned into the pYES260 (Melcher, 2000), pRS316 (Liu et al., 1992) or pGREG536 (Jansen et al., 2005) expression vectors using gap repair. The pJK90 plasmid containing a Dual Topology Reporter (DTR)-tagged OST4 gene driven by the constitutive TPI1 promoter was kindly provided by Dr. Gunnar von Heijne (Stockholm University) (Kim et al., 2003). The OST4 open reading frame in pJK90 was replaced with the PAQR6 and mPRα open reading frames by gap repair. Primers for all cloning reactions are listed herein. Proteins expressed in pYES260 have an N-terminal 6×-histidine tag followed by a TEV protease cleavage site. Proteins expressed in pGREG536 have an N-terminal 7×-HA tag. Proteins expressed in the pRS316 vector are untagged. The pYES260, pRS316 and pGREG536 vectors allow for galactose-inducible expression via the GAL1 promoter. […] The FET3-lacZ plasmid was previously described (Kupchak et al., 2007). […]
(§2) Assays and growth conditions. […] Cells were allowed to grow to mid-log phase at which time the activity of the FET3 gene was monitored using a FET3-lacZ promoter-reporter construct. lacZ activities are presented as a percentage of activity seen in untreated cells expressing the appropriate empty expression vector control. […]

PAQR9 = target: T3, PAQR9 (Homo sapiens, UniProt Q6ZVX9); assay: FET3-lacZ reporter repression in yeast expressing PAQR9; type: cell-based; details: FET3-lacZ
T3 construct: expressed in transfected cells; host or cells: Saccharomyces cerevisiae BY4742, GAL1-driven pYES260 plasmid
T3 sequence (Q6ZVX9 1-377): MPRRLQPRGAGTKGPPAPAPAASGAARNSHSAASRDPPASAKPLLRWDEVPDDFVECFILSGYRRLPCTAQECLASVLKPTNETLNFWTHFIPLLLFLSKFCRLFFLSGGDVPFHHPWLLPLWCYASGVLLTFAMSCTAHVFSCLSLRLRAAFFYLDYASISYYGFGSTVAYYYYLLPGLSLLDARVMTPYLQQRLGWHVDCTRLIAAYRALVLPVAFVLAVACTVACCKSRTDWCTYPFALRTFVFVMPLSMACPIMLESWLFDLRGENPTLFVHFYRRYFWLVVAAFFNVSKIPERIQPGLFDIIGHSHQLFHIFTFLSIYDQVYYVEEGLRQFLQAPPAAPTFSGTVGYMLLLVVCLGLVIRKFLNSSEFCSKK
Excerpt: (§3) Plasmids and primers. Human PAQRs were cloned into various vectors by PCR from commercially/publically available cDNAs. PAQRs were cloned into the pYES260 (Melcher, 2000), pRS316 (Liu et al., 1992) or pGREG536 (Jansen et al., 2005) expression vectors using gap repair. The pJK90 plasmid containing a Dual Topology Reporter (DTR)-tagged OST4 gene driven by the constitutive TPI1 promoter was kindly provided by Dr. Gunnar von Heijne (Stockholm University) (Kim et al., 2003). The OST4 open reading frame in pJK90 was replaced with the PAQR6 and mPRα open reading frames by gap repair. Primers for all cloning reactions are listed herein. Proteins expressed in pYES260 have an N-terminal 6×-histidine tag followed by a TEV protease cleavage site. Proteins expressed in pGREG536 have an N-terminal 7×-HA tag. Proteins expressed in the pRS316 vector are untagged. The pYES260, pRS316 and pGREG536 vectors allow for galactose-inducible expression via the GAL1 promoter. […] The FET3-lacZ plasmid was previously described (Kupchak et al., 2007). Plasmids derived from pADM4 carrying hyperactive alleles of Gpa1p (Gpa1p^Q323L) (Slessareva et al., 2006) and Gpa2p (Gpa2p^Q300L) (Harashima et al., 2002) driven by the ADH1 promoter were kindly provided by Dr. Henrik Dohlman (UNC Chapel Hill). A pRS316-based plasmid containing the STE2 gene under the control of the GAL1 promoter (Feng et al., 2000) was kindly provided by Dr. Nicholas G. Davis (Wayne State University).
Assays and growth conditions. Strains were maintained using standard protocol and grown in synthetic defined (SD) media with the appropriate amino acids to match the auxotrophies of the individual strains. Low Iron Medium (LIM) contains EDTA to limit iron-bioavailability and its composition has been previously described (Kupchak et al., 2007). […] Cells were allowed to grow to mid-log phase at which time the activity of the FET3 gene was monitored using a FET3-lacZ promoter-reporter construct. lacZ activities are presented as a percentage of activity seen in untreated cells expressing the appropriate empty expression vector control. […]

mPRγ = target: T4, mPRγ (Homo sapiens, UniProt Q9NXK6); assay: FET3-lacZ reporter repression in yeast expressing mPRγ; type: cell-based
T4 construct: Full length and truncated mPRγ and mPRα were expressed in wild type cells grown in 2% galactose from the pGREG536 vector; expressed in transfected cells; host or cells: Saccharomyces cerevisiae (BY4742 wild type; also gpa mutants), GAL1-driven plasmids
T4 sequence (Q9NXK6 1-330): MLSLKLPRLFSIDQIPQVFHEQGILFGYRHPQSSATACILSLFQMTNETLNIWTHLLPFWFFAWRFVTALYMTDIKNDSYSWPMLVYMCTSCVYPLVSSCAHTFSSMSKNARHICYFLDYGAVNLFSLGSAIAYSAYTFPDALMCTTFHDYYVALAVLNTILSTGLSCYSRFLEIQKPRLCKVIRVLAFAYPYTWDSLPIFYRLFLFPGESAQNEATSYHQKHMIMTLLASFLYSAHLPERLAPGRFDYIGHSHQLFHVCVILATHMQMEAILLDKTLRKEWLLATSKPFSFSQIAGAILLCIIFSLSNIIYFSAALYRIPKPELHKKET
Excerpt: as §3
Assays and growth conditions. Strains were maintained using standard protocol and grown in synthetic defined (SD) media with the appropriate amino acids to match the auxotrophies of the individual strains. Low Iron Medium (LIM) contains EDTA to limit iron-bioavailability and its composition has been previously described (Kupchak et al., 2007). […] In brief, overnights of cells grown in SD-glucose media were re-inoculated into iron-deficient LIM to induce the expression of FET3. 2% galactose was used as a carbon source to induce full expression of PAQR genes driven by the GAL1 promoter, while 0.05% galactose/1.95% raffinose was used for reduced PAQR expression. All ligands were added to the growth medium upon re-inoculation into LIM. For experiments in which steroids were added as ligands, steroids were added from ethanol stocks and “untreated” controls are actually treated with an equal volume of ethanol to control for vehicle effects. Cells were allowed to grow to mid-log phase at which time the activity of the FET3 gene was monitored using a FET3-lacZ promoter-reporter construct. lacZ activities are presented as a percentage of activity seen in untreated cells expressing the appropriate empty expression vector control. For individual experiments, each data point has been done in triplicate and the error bars represent +/−1 standard deviation. All experiments were performed at least three times and a representative experiment is shown. EC50 values were obtained using the web-based BioDataFit software using sigmoidal curve-fitting. (web site changbioscience.com/stat/ec50.html)

Ste2p GPCR = target: T5, Ste2p GPCR (Saccharomyces cerevisiae, UniProt D6VTK4); assay: FET3-lacZ reporter in yeast overexpressing Ste2p GPCR; type: cell-based; details: 1 μM; overexpressed Ste2p, wild type cells (mat a), 2% galactose
T5 construct: expressed in transfected cells; host or cells: Saccharomyces cerevisiae wild type (mat a), pRS316-based GAL1-STE2 plasmid
T5 sequence (D6VTK4 1-431): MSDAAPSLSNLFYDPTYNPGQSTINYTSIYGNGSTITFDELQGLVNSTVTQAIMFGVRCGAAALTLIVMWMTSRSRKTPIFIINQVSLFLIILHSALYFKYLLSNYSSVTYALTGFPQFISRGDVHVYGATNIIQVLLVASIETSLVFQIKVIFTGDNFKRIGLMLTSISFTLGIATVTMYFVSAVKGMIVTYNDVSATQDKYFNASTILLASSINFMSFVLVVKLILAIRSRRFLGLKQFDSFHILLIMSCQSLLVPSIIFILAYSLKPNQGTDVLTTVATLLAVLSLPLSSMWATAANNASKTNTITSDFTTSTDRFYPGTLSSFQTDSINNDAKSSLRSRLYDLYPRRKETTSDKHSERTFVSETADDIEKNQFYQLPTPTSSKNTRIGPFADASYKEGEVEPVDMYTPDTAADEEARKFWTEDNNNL
Excerpt: as §1, §2

pFET3-397 = pFET3-397 lacZ reporter in yeast with AMPK activator in the growth medium; type: cell-based, Saccharomyces cerevisiae; details: 500 μM in the growth medium
Description: Most experiments were performed in a defined EDTA-containing medium known as low iron medium (LIM) (Eide et al., 1992). Iron-deficiency and repletion were generated by adding either 1 μM or 1 mM of FeCl3, respectively, to LIM. 2% galactose was used to fully induce GAL1-driven gene overexpression. Total sugar concentration was maintained at 2% by the addition of raffinose in those experiments in which the % galactose was modulated to decrease expression levels. Cells were allowed to grow to mid-log phase in LIM and β-galactosidase assays on permeabilized yeast were performed as previously described (Lyons et al., 2000). Ferroxidase activity assays on intact yeast cells followed published procedures using ferrozine as a colorimetric indicator of iron oxidation state (De Silva et al., 1995). All experiments include triplicate data points and each experiment was performed a minimum of three times. Representative experiments are shown. All error bars represent ±1 standard deviation within a single experiment. Because of the simplicity of β-galactosidase assays and the fact that Izh2p overexpression similarly affects both lacZ and ferroxidase activity, lacZ assays are shown for most experiments. For some strains with significant growth defects, such as snf1Δ, lacZ assays were not performed because of the low efficiency of co-transformation of lacZ reporter and overexpression plasmids. […]

[1] = FET3-lacZ, steroids up to 10 μM

CC(=O)[C@@]1(O)CC[C@H]2[C@@H]3CCC4=CC(=O)CC[C@]4(C)[C@H]3CC[C@@]21C [17α-hydroxyprogesterone]
agonist activity on mPRα (in words) (mPRα; [1]): effective activator | activation of mPRα, alterations at the 17 and 21 positions of the pregnane ring (in words) (mPRα; further analysis of mPRα (pRS316 plasmid, 2% galactose per FIG. 7C)): similarly effective activators | EC50 (mPRα; mPRα column of Table 4, ligand alone, read-out: EC50): 10.2 nM | EC50 (mPRα; read-out: EC50 for the activation of mPRα): ~10 nM | activation of PAQR6 (in words) (PAQR6): can be activated | activation of PAQR9 (in words) (PAQR9): can be activated | agonist activity on mPRγ (in words) (mPRγ; [1]): effective activator | EC50 (mPRγ; mPRγ column of Table 4, ligand alone): 9.3 nM

α-factor
effect on FET3 (Ste2p GPCR): no effect

NC(=O)c1ncn([C@@H]2O[C@H](CO)[C@@H](O)[C@H]2O)c1N [AICAR]
effect on pFET3-397 activity (pFET3-397): small but reproducible decrease
